Read-outs that look alike come from different tables or passages of the source.

For one assay, the target named is METTL3/METTL14 (Homo sapiens, UniProt Q86U44). Description: METTL3-14 Standard Enzyme Assay (METTL3 biochemical assay). As for the experimental part:
Assays were performed in a 25 μl-volume in 384-well V-bottom polypropylene microplates (Greiner Bio-One, cat. No. 781280) at ambient temperature. Optimized 1× assay buffer was 20 mM HEPES pH 7.5, 50 mM KCl, 250 μM MgCl2, 1 mM DTT, 0.01% Tween, 0.01% BSG, 0.004 U/μl RNAseOUT (cat. No. 10777019, ThermoFisher Scientific, Waltham, Mass.). For compound screening METTL3/METTL14 (final concentration, f.c.=2.5 nM) was added using a Multidrop Combi (ThermoFisher Scientific, Waltham, Mass.) and preincubated for 5 min. Reactions were started by adding 3′ biotinylated RNA ([…]-biotin) (f.c.=100 nM) and 3H-SAM (f.c.=100 nM) substrates. Reactions proceeded for 30 minutes and were quenched with excess non-radioactive SAM (f.c.=15 μM). The reactions were then transferred to streptavidin-coated flashplates and incubated for 2 hours at 25° C. Following two washing cycles with 0.1% Tween-20, the plates were sealed and read on a TopCount (PerkinElmer, Waltham, Mass.) plate-based scintillation counter. For determination of kinetic parameters, reaction times were optimized so that measurements were taken during the initial velocity phase of the reaction.

In another assay the target is PRMT5-MEP50 (Homo sapiens, UniProt O14744). In words: PRMT5 Assay (PRMT5 biochemical assay). As for the experimental part: Assays were performed in a 25 μl-volume in 384-well V-bottom polypropylene microplates (Greiner Bio-One, cat. No. 781280) at ambient temperature. Optimized 1× assay buffer was 20 mM Tris-HCl pH 8.0, 1 mM DTT, […]. For compound screening PRMT5-MEP50 (final concentration, f.c.=2.5 nM) was added using a Multidrop Combi (ThermoFisher Scientific, Waltham, Mass.) and preincubated for 5 min. Reactions were started by adding 3′ biotinylated histone H4 peptide acetylated on serine 1 (Ac-[…]-Biotin) (f.c.=100 nM) and 3H-SAM (f.c.=250 nM) substrates. Reactions proceeded for 60 minutes and were quenched with excess non-radioactive SAM (f.c.=15 μM). The reactions were then transferred to streptavidin-coated flashplates and incubated for 2 hours at 25° C. Following two washing cycles with 0.1% Tween-20, the plates were sealed and read on a TopCount (PerkinElmer, Waltham, Mass.) plate-based scintillation counter. For determination of kinetic parameters, reaction times were optimized so that measurements were taken during the initial velocity phase of the reaction.
PRMT5-MEP50, sequence (O14744 whole entry): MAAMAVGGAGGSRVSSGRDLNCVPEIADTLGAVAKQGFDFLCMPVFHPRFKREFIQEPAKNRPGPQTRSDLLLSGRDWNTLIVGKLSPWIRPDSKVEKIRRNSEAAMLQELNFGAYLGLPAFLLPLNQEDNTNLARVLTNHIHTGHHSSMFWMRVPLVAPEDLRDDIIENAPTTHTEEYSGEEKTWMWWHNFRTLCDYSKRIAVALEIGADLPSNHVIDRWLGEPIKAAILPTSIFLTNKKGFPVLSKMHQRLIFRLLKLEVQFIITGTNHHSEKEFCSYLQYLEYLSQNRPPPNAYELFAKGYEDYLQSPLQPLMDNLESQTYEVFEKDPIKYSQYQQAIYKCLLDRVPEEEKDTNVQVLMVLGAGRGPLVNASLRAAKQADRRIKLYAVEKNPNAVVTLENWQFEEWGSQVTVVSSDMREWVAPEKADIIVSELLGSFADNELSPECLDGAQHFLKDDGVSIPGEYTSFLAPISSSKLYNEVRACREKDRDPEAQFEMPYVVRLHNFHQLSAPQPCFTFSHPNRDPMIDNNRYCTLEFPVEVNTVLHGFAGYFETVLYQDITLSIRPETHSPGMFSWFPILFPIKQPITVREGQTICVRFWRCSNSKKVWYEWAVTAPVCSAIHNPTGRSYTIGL
PRMT5-MEP50, sequence (Q9BQA1 whole entry partner): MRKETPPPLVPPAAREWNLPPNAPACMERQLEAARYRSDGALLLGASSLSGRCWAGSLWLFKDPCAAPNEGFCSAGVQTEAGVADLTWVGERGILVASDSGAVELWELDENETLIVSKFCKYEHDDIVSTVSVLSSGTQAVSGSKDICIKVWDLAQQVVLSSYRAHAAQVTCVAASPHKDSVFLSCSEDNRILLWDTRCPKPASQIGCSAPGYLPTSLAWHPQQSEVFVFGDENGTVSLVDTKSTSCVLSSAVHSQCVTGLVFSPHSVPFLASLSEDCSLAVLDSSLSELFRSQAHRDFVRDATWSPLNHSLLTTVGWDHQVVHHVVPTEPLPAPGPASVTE

Setting [1] is: METTL3 biochemical assay, read-out: METTL3 IC50.
Setting [2] is: PRMT5 biochemical assay, read-out: PRMT5 IC50.

METTL3/METTL14, sequence (Q86U44 whole entry, species assumed): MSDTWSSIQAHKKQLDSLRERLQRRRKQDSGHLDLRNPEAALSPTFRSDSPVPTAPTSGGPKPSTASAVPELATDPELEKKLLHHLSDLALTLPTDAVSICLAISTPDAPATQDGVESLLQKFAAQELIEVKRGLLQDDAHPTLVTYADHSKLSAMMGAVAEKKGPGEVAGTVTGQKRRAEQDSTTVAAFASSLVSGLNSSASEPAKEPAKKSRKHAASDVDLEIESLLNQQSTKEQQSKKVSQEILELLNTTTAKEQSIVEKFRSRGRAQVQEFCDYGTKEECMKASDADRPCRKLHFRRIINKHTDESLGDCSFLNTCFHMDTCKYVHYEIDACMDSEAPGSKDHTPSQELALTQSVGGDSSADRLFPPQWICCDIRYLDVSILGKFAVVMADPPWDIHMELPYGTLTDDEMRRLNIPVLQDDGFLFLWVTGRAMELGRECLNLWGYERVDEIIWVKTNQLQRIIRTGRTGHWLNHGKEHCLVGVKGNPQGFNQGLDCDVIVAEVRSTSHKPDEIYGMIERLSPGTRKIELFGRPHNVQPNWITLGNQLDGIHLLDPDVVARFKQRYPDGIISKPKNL
METTL3/METTL14, sequence (Q9HCE5 whole entry partner, species assumed): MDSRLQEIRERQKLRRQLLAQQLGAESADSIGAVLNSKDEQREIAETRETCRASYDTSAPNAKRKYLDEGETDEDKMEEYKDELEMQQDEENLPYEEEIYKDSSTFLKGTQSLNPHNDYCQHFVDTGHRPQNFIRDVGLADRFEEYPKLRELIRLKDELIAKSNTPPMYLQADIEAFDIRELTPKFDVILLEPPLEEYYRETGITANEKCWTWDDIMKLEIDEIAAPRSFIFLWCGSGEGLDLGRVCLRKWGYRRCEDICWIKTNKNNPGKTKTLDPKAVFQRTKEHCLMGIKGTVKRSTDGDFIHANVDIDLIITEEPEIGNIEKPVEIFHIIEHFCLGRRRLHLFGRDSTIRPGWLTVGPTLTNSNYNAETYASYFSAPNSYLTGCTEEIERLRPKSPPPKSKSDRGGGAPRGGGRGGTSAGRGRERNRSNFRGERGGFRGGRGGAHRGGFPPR

Consider `Cn1ccc(-c2cn([C@@H]3O[C@H](COc4ccc5ccc(N[C@H]6C[C@H](N)C6)nc5c4)[C@@H](O)[C@@H]3F)c3ncnc(N)c23)n1` [I-197], for which the figures for the IC50 on METTL3/METTL14 and against PRMT5-MEP50 were 10 to 100 nM and 100 to 1000 nM, respectively.
Turning to `Cn1ccc(-c2cn([C@H]3C[C@H](O)[C@@H](CCc4ccc5ccc(N6CCC6)nc5c4)O3)c3ncnc(N)c23)n1` [I-194], the concentration for half-maximal inhibition (IC50) at METTL3/METTL14 is < 10 nM; against PRMT5-MEP50, > 1000 nM.
`CNc1nc2cc(OC[C@H]3O[C@@H](n4cc(-n5cccn5)c5c(N)ncnc54)[C@@H](F)[C@@H]3O)ccc2s1` [I-195]: the IC50 was 100 to 1000 nM on METTL3/METTL14 and > 1000 nM against PRMT5-MEP50.
As to `Nc1ncnc2c1ccn2[C@H]1C[C@H](O)[C@@H](COc2ccc3ccc(N4CC(N)C4)nc3c2)O1` [I-184], the IC50 at METTL3/METTL14 (setting [1]) was in the range of 100 to 1000 nM; at PRMT5-MEP50 (setting [2]), 10 to 100 nM.
Take `Cn1ccc(-c2cn([C@@H]3O[C@H](COc4ccc5sc(N6CCC6)nc5c4)[C@@H](O)[C@@H]3F)c3ncnc(N)c23)n1` [I-177]: the half-inhibitory concentration (IC50) is 10 to 100 nM on METTL3/METTL14 and > 1000 nM at PRMT5-MEP50.
On to `Nc1ncnc2c1c([C@@H]1CCCO1)cn2[C@@H]1O[C@H](COc2ccc3ccc(N4CCC4)nc3c2)[C@@H](O)[C@@H]1F` [I-224], for which the half-inhibitory concentration (IC50) is < 10 nM at METTL3/METTL14 (setting [1]) and 100 to 1000 nM at PRMT5-MEP50 (setting [2]).
For `Nc1ncnc2c1c(-n1cccn1)cn2[C@@H]1C[C@H](CCc2cc3nc(N4CCC4)ccc3cc2F)[C@@H](O)C1` [I-210], the concentration for half-maximal inhibition (IC50) against METTL3/METTL14 is < 10 nM; against PRMT5-MEP50, > 1000 nM.
In the case of `CNc1nc2cc(OC[C@H]3O[C@@H](n4cc(-n5ccc(C)n5)c5c(N)ncnc54)C[C@@H]3O)ccc2cc1F` [I-207], the IC50 at METTL3/METTL14 and against PRMT5-MEP50 was > 1000 nM in each case.
In the case of `Nc1ncnc2c1ccn2[C@@H]1O[C@H](CCC2CCNCC2)[C@@H](O)[C@@H]1F` [I-192], the results for the IC50 at METTL3/METTL14 (setting [1]) and at PRMT5-MEP50 (setting [2]) were 100 to 1000 nM and > 1000 nM, respectively.
As for `CN(C)Cc1cn([C@@H]2O[C@H](COc3ccc4ccc(N5CCC5)nc4c3)[C@@H](O)[C@@H]2F)c2ncnc(N)c12` [I-214], the results for the 50% inhibitory concentration (IC50) at METTL3/METTL14 (setting [1]) and at PRMT5-MEP50 (setting [2]) were < 10 nM and > 1000 nM, respectively.
The matching figures for `Nc1ncnc2c1ccn2[C@@H]1O[C@H](COc2ccc3ccc(N[C@H]4C[C@@H](N)C4)nc3c2)[C@@H](O)[C@@H]1F` [I-204]: 100 to 1000 nM and 100 to 1000 nM.
As for `CCc1cc(N(C)C2CC2)c2ccc(OC[C@H]3O[C@@H](n4ccc5c(N)ncnc54)C[C@@H]3O)cc2n1` [I-161], the 50% inhibitory concentration (IC50) on METTL3/METTL14 (setting [1]) is 10 to 100 nM.
Regarding `CCNc1ccc2ccc(CC[C@H]3C[C@@H](n4cc(-n5cccn5)c5c(N)ncnc54)C[C@@H]3O)cc2n1` [I-209], the 50% inhibitory concentration (IC50) against METTL3/METTL14 is < 10 nM.
For the compound `CC1(C)COC(c2cn([C@@H]3O[C@H](COc4ccc5ccc(N6CCC6)nc5c4)[C@@H](O)[C@@H]3F)c3ncnc(N)c23)=N1` [I-213], the IC50 at METTL3/METTL14 (setting [1]) is < 10 nM; on PRMT5-MEP50 (setting [2]), > 1000 nM.
For `Cn1ccc(-c2cn([C@@H]3O[C@H](COc4ccc5ccc(NC67CC(C6)C7)nc5c4)[C@@H](O)[C@@H]3F)c3ncnc(N)c23)n1` [I-200], the IC50 against METTL3/METTL14 was < 10 nM; against PRMT5-MEP50, 100 to 1000 nM.
For `Cn1ccc(-c2cn([C@@H]3O[C@H](COc4ccc5ccc(N[C@H]6C[C@@H](N)C6)nc5c4)[C@@H](O)[C@@H]3F)c3ncnc(N)c23)n1` [I-201], in that order: 10 to 100 nM and 100 to 1000 nM.
Consider `Nc1ncnc2c1ccn2[C@@H]1O[C@H](COc2ccc3ccc(N4CC(N)C4)nc3c2)[C@@H](O)[C@@H]1F` [I-188], for which the IC50 at METTL3/METTL14 (setting [1]) is 10 to 100 nM; on PRMT5-MEP50 (setting [2]), > 1000 nM.
In the case of `Nc1ncnc2c1ccn2[C@@H]1O[C@H](COc2ccc3ccc(NC4CCC4)nc3c2)[C@@H](O)[C@@H]1F` [I-185], the IC50 is < 10 nM at METTL3/METTL14 (setting [1]) and > 1000 nM on PRMT5-MEP50 (setting [2]).
For `CNc1nc2cc(OC[C@H]3O[C@@H](n4cc(-c5ccn(C)n5)c5c(N)ncnc54)[C@@H](F)[C@@H]3O)ccc2s1` [I-176], the half-inhibitory concentration (IC50) is 100 to 1000 nM at METTL3/METTL14 and > 1000 nM against PRMT5-MEP50.
In the case of `Cc1ccn(-c2cn([C@@H]3O[C@H](COc4ccc5ccc(N6CC(O)C6)nc5c4)[C@@H](O)[C@@H]3F)c3ncnc(N)c23)n1` [I-187], the IC50 against METTL3/METTL14 was < 10 nM; at PRMT5-MEP50 it was > 1000 nM.
In the case of `CCc1nc2cc(OC[C@H]3O[C@@H](n4cc(-c5ccn(C)n5)c5c(N)ncnc54)[C@@H](F)[C@@H]3O)ccc2o1` [I-168], the IC50 against METTL3/METTL14 and on PRMT5-MEP50 was > 1000 nM each time.
Regarding `Nc1ncnc2c1ccn2[C@H]1C[C@H](O)[C@@H](CCc2ccc3ccc(N4CCC4)nc3c2)O1` [I-198], the half-maximal inhibitory concentration (IC50) was 10 to 100 nM at METTL3/METTL14 (setting [1]) and > 1000 nM at PRMT5-MEP50 (setting [2]).
Consider `Cn1ccc(-c2cn([C@H]3C[C@H](O)[C@@H](COc4ccc5ccc(N6CC(N)C6)nc5c4)O3)c3ncnc(N)c23)n1` [I-182], for which the 50% inhibitory concentration (IC50) is < 10 nM at METTL3/METTL14 and > 1000 nM on PRMT5-MEP50.
Regarding `CNc1ccc2sc(CC[C@H]3O[C@@H](n4ccc5c(N)ncnc54)[C@@H](F)[C@@H]3O)cc2n1` [I-193], the half-inhibitory concentration (IC50) on METTL3/METTL14 (setting [1]) and at PRMT5-MEP50 (setting [2]) was 10 to 100 nM in each case.
`CCc1nc2cc(OC[C@H]3O[C@@H](n4cc(-c5ccn(C)n5)c5c(N)ncnc54)[C@@H](F)[C@@H]3O)ccc2[nH]1` [I-172]: the IC50 against METTL3/METTL14 is 100 to 1000 nM; against PRMT5-MEP50, > 1000 nM.
The matching figures for `Nc1ncnc2c1c(-c1cnccn1)cn2[C@@H]1O[C@H](COc2ccc3ccc(N4CCC4)nc3c2)[C@@H](O)[C@@H]1F` [I-215]: < 10 nM and > 1000 nM.
For the compound `Cn1ccc(-c2cn([C@@H]3O[C@H](COc4ccc5ccc(C(=O)N6CCC6)nc5c4)[C@@H](O)[C@@H]3F)c3ncnc(N)c23)n1` [I-203], the IC50 against METTL3/METTL14 and at PRMT5-MEP50 was > 1000 nM throughout.
`CNc1nc2cc(OC[C@H]3O[C@@H](n4cc(-c5ccn(C)n5)c5c(N)ncnc54)[C@@H](F)[C@@H]3O)ccc2o1` [I-173]: the IC50 against METTL3/METTL14 is 100 to 1000 nM; against PRMT5-MEP50 it was > 1000 nM.
Turning to `Cn1ccc(-c2cn([C@@H]3O[C@H](COc4ccc5ccc(NC6CNC6)nc5c4)[C@@H](O)[C@@H]3F)c3ncnc(N)c23)n1` [I-196], the concentration for half-maximal inhibition (IC50) is 100 to 1000 nM on METTL3/METTL14 and > 1000 nM on PRMT5-MEP50.
Regarding `Cn1ccc(-c2cn([C@@H]3O[C@H](COc4ccc5ncc(N6CCC6)nc5c4)[C@@H](O)[C@@H]3F)c3ncnc(N)c23)n1` [I-189], the IC50 was 10 to 100 nM against METTL3/METTL14 and > 1000 nM at PRMT5-MEP50.
As for `Nc1ncnc2c1c(-n1cccn1)cn2C1CC(CCc2ccc3ccc(NC4CCC4)nc3c2)C(O)C1F` (stereo not shown) [I-235], the half-inhibitory concentration (IC50) at METTL3/METTL14 was 100 to 1000 nM; against PRMT5-MEP50 it was 10 to 100 nM.
Turning to `CN(c1ccc2ccc(OC[C@H]3O[C@@H](n4cc(-c5ccn(C)n5)c5c(N)ncnc54)[C@@H](F)[C@@H]3O)cc2n1)C1CCC1` [I-202], the values for the IC50 against METTL3/METTL14 and on PRMT5-MEP50 were < 10 nM and > 1000 nM, respectively.
Consider `CN(CCS(C)(=O)=O)c1ccc2ccc(OC[C@H]3O[C@@H](n4cc(-c5ccn(C)n5)c5c(N)ncnc54)[C@@H](F)[C@@H]3O)cc2n1` [I-166], for which the half-maximal inhibitory concentration (IC50) against METTL3/METTL14 was 100 to 1000 nM; against PRMT5-MEP50, > 1000 nM.
The matching figures for `Cn1ccc(-c2cn([C@@H]3O[C@H](COc4ccc(C(=O)N5CCNCC5)c(N)c4)[C@@H](O)[C@@H]3F)c3ncnc(N)c23)n1` [I-174]: 100 to 1000 nM and > 1000 nM.
Consider `CNc1nc2cc(OC[C@H]3O[C@@H](n4cc(-c5ccn(C)n5)c5c(N)ncnc54)[C@@H](F)[C@@H]3O)ccc2[nH]1` [I-208], for which the IC50 at METTL3/METTL14 was < 10 nM; on PRMT5-MEP50 it was 100 to 1000 nM.
For `Cc1ccn(-c2cn([C@@H]3O[C@H](COc4ccc5ccc(N6CC(N)C6)nc5c4)[C@@H](O)[C@@H]3F)c3ncnc(N)c23)n1` [I-186], in that order: 10 to 100 nM and 100 to 1000 nM.

As usually defined, the IC50 is the concentration at which inhibition is half-maximal.

Values taken from patent US20230027361A1, “METTL3 MODULATORS” (priority 2019, published 2023).
